Test results taken from the Deep4Chem optical property database.
Where “and” joins values, the source holds several entries; their conditions need not be identical. Identical values can stand only once. Blank lines part the entries; values can stand above or below the molecule they belong to.

Experiment: solvent given as SMILES

SMILES: O=c1oc2ccc3ccccc3c2nc1-c1ccccc1
fluorescence lifetime (in c1ccccc1): 2.2 ns and 2.6 ns

SMILES: COc1cc2c(cc1-c1ccccc1)Cc1c3c(c4c(c1-2)-c1cc(OC)c(-c2ccccc2)cc1C4)C(=O)N(CCC(C)C)C3=O
fluorescence lifetime (in C1CCOC1): 3.87 ns
fluorescence lifetime (in CC#N): 6.33 ns
fluorescence lifetime (in CC(C)=O): 5.36 ns
fluorescence lifetime (in CCOC(C)=O): 3.99 ns
fluorescence lifetime (in CS(C)=O): 6.41 ns
fluorescence lifetime (in Cc1ccccc1): 2.55 ns
fluorescence lifetime (in ClC(Cl)Cl): 5.95 ns
fluorescence lifetime (in ClCCl): 5.64 ns

SMILES: CCC1(CC)c2cc(N(c3ccccc3)c3ccccc3)ccc2-c2c1c1c(c3c2C(CC)(CC)c2cc(N(c4ccccc4)c4ccccc4)ccc2-3)C(CC)(CC)c2cc(N(c3ccccc3)c3ccccc3)ccc2-1
fluorescence lifetime (in C1CCOC1): 2.1 ns

SMILES: COc1ccc(N(c2ccccc2)c2cc3ccc4cc(N(c5ccccc5)c5ccc(OC)cc5)cc5ccc(c2)c3c45)cc1
fluorescence lifetime (in Cc1ccccc1): 18 ns

SMILES: c1ccc(C2=Nc3cccc4[n+]3[B-](c3ccccc3)(N2)NC(c2ccccc2)=N4)cc1
fluorescence lifetime (in ClCCl): 2.5 ns

SMILES: COc1ccc(-c2c(-c3ccc(OC)cc3)c3c4c(cccc4c2-c2ccccc2)C(=O)c2ccccc2-3)cc1
fluorescence lifetime (in CC#N): 2.3 ns
fluorescence lifetime (in CO): 0.8 ns

SMILES: CC(C)(C)c1cc2cc(N(c3ccccc3)c3ccccc3)c3cc(C(C)(C)C)cc4cc(N(c5ccccc5)c5ccccc5)c(c1)c2c43
fluorescence lifetime (in CCCCCC): 4.6 ns

SMILES: FC(F)(F)C(F)(F)C(F)(F)C1=NC2=C(c3ccccc3)C=C3c4cc(-c5ccccc5)c5nc(C(F)(F)C(F)(F)C(F)(F)F)nc6c(-c7ccccc7)cc(c4c56)=C4C=C(c5ccccc5)C(=N1)C2C34 (stereo not drawn)
fluorescence lifetime (in C1CCOC1): 3.2 ns

SMILES: CC(C)(C)c1cc(-n2c(-c3ccc(C(=C(c4ccccc4)c4ccccc4)c4ccccc4)cc3)cc3c2cc(-c2ccc(C(=C(c4ccccc4)c4ccccc4)c4ccccc4)cc2)n3-c2cc(C(C)(C)C)cc(C(C)(C)C)c2)cc(C(C)(C)C)c1
fluorescence lifetime (in ClCCl): 0.063 ns

SMILES: CN(C)c1ccc(/C=C2\CC/C(=C\c3ccc(N(C)C)cc3)C2=O)cc1
fluorescence lifetime (in C1CCOC1): 0.6 ns
fluorescence lifetime (in C1COCCO1): 0.5 ns
fluorescence lifetime (in CC#N): 0.54 ns
fluorescence lifetime (in CC(C)=O): 0.74 ns
fluorescence lifetime (in CC(C)O): 0.68 ns
fluorescence lifetime (in CCO): 0.34 ns
fluorescence lifetime (in CCOC(C)=O): 0.59 ns
fluorescence lifetime (in CN(C)C=O): 0.92 ns
fluorescence lifetime (in CO): 0.29 ns
fluorescence lifetime (in CS(C)=O): 0.85 ns
fluorescence lifetime (in Cc1ccccc1): 0.48 ns
fluorescence lifetime (in ClC(Cl)(Cl)Cl): 0.37 ns
fluorescence lifetime (in ClC(Cl)Cl): 0.57 ns
fluorescence lifetime (in ClCCl): 0.77 ns
fluorescence lifetime (in S=C=S): 0.51 ns

SMILES: CC(C)c1cc(C(C)C)c(-c2nnc(-c3ccc(-n4c5ccccc5c5ccccc54)cc3)o2)c(C(C)C)c1
fluorescence lifetime (in CCO): 2.19 ns

SMILES: O=C1/C(=C2\Sc3ccccc3C2=O)Sc2ccccc21
fluorescence lifetime (in C1COCCO1): 12.4 ns
fluorescence lifetime (in CN(C)C=O): 6.9 ns
fluorescence lifetime (in CO): 0.68 ns
fluorescence lifetime (in CS(C)=O): 0.17 ns
fluorescence lifetime (in c1ccccc1): 12.2 ns

SMILES: CCCCn1c2ccc(-c3cccs3)cc2c2c1c1c3ccc(-c4cccs4)cc3n(CCCC)c1c1c3ccc(-c4cccs4)cc3n(CCCC)c21
fluorescence lifetime (in C1CCOC1): 4.2 ns

SMILES: CCCCN1C(=O)c2cc(Oc3ccc(C(C)(C)C)cc3)c3c4c(Oc5ccc(C(C)(C)C)cc5)cc5c(=O)[nH]/c(=C\c6ccccn6)c6cc(Oc7ccc(C(C)(C)C)cc7)c(c7c(Oc8ccc(C(C)(C)C)cc8)cc(c2c37)C1=O)c4c56
fluorescence lifetime (in C1CCOC1): 3.33 ns
fluorescence lifetime (in Cc1ccccc1): 3.57 ns
fluorescence lifetime (in ClCCl): 4.05 ns

SMILES: CC(C)(C)c1ccc2c(c1)c1cc(C(C)(C)C)ccc1n2-c1ccc(C(=CC#N)c2ccc(-n3c4ccc(C(C)(C)C)cc4c4cc(C(C)(C)C)ccc43)cc2)cc1
fluorescence lifetime (in Cc1ccccc1): 3.86 ns

SMILES: O=c1cc(C(F)(F)F)c2cc3c4c(c2o1)CCCN4CCC3
fluorescence lifetime (in C1CCCCC1): 4.3 ns
fluorescence lifetime (in CC#N): 5.6 ns
fluorescence lifetime (in CCC#N): 6.55 ns
fluorescence lifetime (in CCCCCCCl): 5.72 ns
fluorescence lifetime (in CCCCl): 5.78 ns
fluorescence lifetime (in CCO): 3.4 ns and 4.56 ns
fluorescence lifetime (in CCOC(C)=O): 5.4 ns
fluorescence lifetime (in OCC(F)(F)F): 3.97 ns
fluorescence lifetime (in OCC(O)CO): 3.5 ns

SMILES: Cn1c(=O)c(/N=N/c2ccc(Nc3ccc([N+](=O)[O-])cc3S(=O)(=O)O)cc2)c(O)c2ccccc21
fluorescence lifetime (in CS(C)=O): 0.03 ns

SMILES: CN(C)c1ccc(-c2c(/C=C3/C=Cc4ccccc4N3C)c(=O)c2=O)cc1
fluorescence lifetime (in C1CCCCC1): 1.54 ns
fluorescence lifetime (in Cc1ccccc1): 2.48 ns
fluorescence lifetime (in ClCCl): 0.15 ns

SMILES: C(=C\c1ccccc1/C=C/c1c2ccccc2cc2ccccc12)/c1ccncc1
fluorescence lifetime (in C1CCOC1): 3.38 ns

Other lines, results leading:

fluorescence lifetime (in ClC(Cl)Cl): 4 ns
SMILES: Cc1cc(C)c(C2=C3C=CC=[N+]3[B-]3(F)Oc4cc(O)cc5c6ccc(C)cc6c6cc2n3c6c45)c(C)c1 (stereo not drawn)

fluorescence lifetime (in CCOC(C)=O): 2.41 ns
SMILES: C[Si](C)(C)c1cc2c(cc3ccc4cccc5ccc2c3c45)[nH]1

fluorescence lifetime (in CC#N): 8.7 ns
fluorescence lifetime (in ClCCl): 3.3 ns
SMILES: Cc1ccc(-c2cc(C)[o+]c(C)c2)cc1

fluorescence lifetime (in CC1CCCCC1): 11 ns
SMILES: c1cc(N2CCCC2)ccn1

fluorescence lifetime (in ClCCl): 3.34 ns
SMILES: CCN(CC)c1ccc2c(c1)oc(=O)c1cnc3c(c(C)nn3-c3ccccc3)c12

fluorescence lifetime (in C1CCCCC1): 0.41 ns
SMILES: CN(C)c1ccc2nc(-c3ccc(C=C4C(=O)c5ccccc5C4=O)cc3)sc2c1

fluorescence lifetime (in CC#N): 7.1 ns and 6.9 ns
SMILES: Cc1cc2nc3c(=O)n(C)c(=O)nc-3n(C)c2cc1C

fluorescence lifetime (in ClCCl): 0.834 ns
SMILES: Cc1nc(-c2cc(N)ccc2O)n2c1CCCC2

fluorescence lifetime (in ClCCl): 4.76 ns
SMILES: [O-][n+]1c(-c2ccccc2)cc(N2CCOCC2)nc1/C=C/c1ccccc1

fluorescence lifetime (in CC#N): 0.52 ns
SMILES: c1cc2c3c(cccc3c1)C(N1CCOCCNCCOCCOCC1)=N2
